The values that follow come from PMC5391968, “Comparison of cell-based assays for the identification and evaluation of competitive CXCR4 inhibitors” (PLoS ONE, 2017).

The term IC50 denotes the midpoint of a concentration-inhibition curve.

Like-named read-outs stand apart in the source and are kept apart here. Where a SMILES comes first, the peptide text is derived from it. Bridges are numbered along the chain shown (N, C = ends). Where no end group is shown, it is not given here. [ ]: non-standard residue; d: D form. 2Nal = N[C@@H](Cc1ccc2ccccc2c1)C(=O)O; Cit = NC(=O)NCCC[C@H](N)C(=O)O Some results are limits rather than exact numbers.

Experiment [1] has as its system HIV-1 NL4-3 (X4). In words: microbe, parasite or virus in culture. The experiment is classed as cell-based. As for the experimental part: PHA-stimulated PBMCs at 5x10^5 cells per sample, pre-incubated with test compounds dissolved in cell culture medium containing IL-2 (2 ng/ml; […] After three days, fresh culture medium with IL-2 was added. Ten days post infection cell supernatant was collected for HIV-1 p24 core antigen enzyme-linked immunosorbent assay (ELISA; Perkin Elmer, Boston, MA, USA) according to the manufacturer’s protocol. In the antiviral assays, each condition was tested in duplicate.

A further experiment deals with T1, CXCR7 (Homo sapiens, UniProt P25106).
T1 construct: expressed in transfected cells; host or cells: U87.CD4 cells transfected with pTEJ-8 plasmid carrying human CXCR7 cDNA
In words: CXCL12 binding on CXCR7-transfected U87 cells (U87.CD4.CXCR7). To be noted: data not shown.

The target in experiment [2] is T2, CXCR4 (Homo sapiens, UniProt P61073). In words: CXCR4 internalization assay in SUP-T1 cells. More on the design: CXCR4 receptors endogenously expressed on SUP-T1 cells; endogenous in cells; host or cells: SUP-T1 (ATCC). It is filed as cell-based. To be noted: for induction of CXCR4 internalization (agonistic effect): in absence of CXCL12, data not shown; for IC50: SUP-T1 cells, 6.25 nM CXCL12, 37°C 30 minutes, mean ± SEM. As for the experimental part:
T-lymphoblastic SUP-T1 cells were washed twice in DPBS containing 2% FBS. Afterwards, cells were first incubated with the PE-labeled rat anti-human CXCR4 mAb (clone 1D9; 2 μg/ml in DPBS/2% FBS; BD Pharmingen) on ice for 45 minutes. […] SUP-T1 cells were subsequently washed once with ice cold DPBS and twice with ice cold assay buffer (see above) before being treated with test compound on ice for 15 minutes. […] Samples were immediately analyzed with the FACSCalibur flow cytometer (Becton Dickinson) whereby the measured fluorescence corresponds to the amount of […] CXCR4 receptors. Data were further analyzed with the FlowJo software.

Experiment [3] deals with HIV-1 NL4-3 (X4). In words: microbe, parasite or virus in culture. The experiment is classed as cell-based. How it is done:
The anti-HIV replication assays in MT-4 cells and PHA-stimulated PBMCs have been described previously. The HIV-1 T-tropic molecular clone NL4-3 (X4) was obtained from the National Institute of Allergy and Infectious Disease (NIAID) AIDS reagent program (Bethesda, MD, USA). Briefly, 5x10^4 MT-4 cells (in cell culture medium) were treated with different concentrations of compound at 37°C for 30 minutes. Afterwards, a 50% tissue culture infectious dose of the NL4-3 viral stock was added to the cell-compound mixtures. Four days post infection, the cytopathic effect was evaluated microscopically and cell viability was assessed with the MTS method, as described above.
In the antiviral assays, each condition was tested in duplicate.
This is another data set of the same source.

In experiment [4] the test system is CXCR4-positive Jurkat cells. In words: cells. The experiment is classed as cell-based, human. As for the experimental part: Jurkat cells were washed twice in assay buffer (see above), dispensed into a 96-well plate (5x10^5 cells per well) containing serial dilutions of compounds (in assay buffer) and incubated at RT in the dark for 10 minutes. […] Suspensions of 1.87x10^4 cells were transferred to the chemotaxis insert plate. […] After removal of the insert plate, migrated cells were centrifuged and resuspended in DPBS containing flow cytometry cell counting beads ([…] Fluorescent Particles; Gentaur, London, UK). Both migrated cells and particles were counted by flow cytometry (FACSCanto II; Becton Dickinson). Each compound concentration was tested in triplicate. Data were analyzed using the FlowJo software and the total number of migrated cells was calculated, according to the counted and total number of beads present in the sample.

The target in experiment [5] is T2, CXCR4. In words: Calcium mobilization assay (FLIPR Tetra) in U87.CD4.CXCR4 cells. The experiment is classed as cell-based. To be noted: for agonist activity on intracellular calcium flux: in absence of CXCL12; for IC50: 6.25 nM CXCL12, mean ± SEM, read-out: IC50 Calcium signaling (CXCL12-induced). As for the experimental part:
U87.CD4.CXCR4 cells were seeded at 2x10^4 cells per well in gelatin-coated black-walled 96-well plates [0.1% gelatin in DPBS, incubated at RT for two hours and washed once with DPBS] and incubated at 37°C and 5% CO2 overnight. […] Fluo-2 AM loaded cells were washed with assay buffer before being incubated in the FLIPR Tetra system at 37°C for five minutes. At the start of the kinetic measurement, compounds were added to the cell plate by the internal robotic system followed by an incubation period of 10 minutes during which changes in the intracellular calcium level were continuously measured by the FLIPR Tetra. […] Each condition was measured in triplicate and repeated several times as further indicated (see Results).
A general note: A change in cytosolic calcium serves as a functional read-out for many receptors and channels.

The target in experiment [6] is T2, CXCR4. In words: CXCL12^AF647 binding assay on Jurkat cells. To be noted: Jurkat cells, 2.9 nM CXCL12^AF647, mean ± SEM; read-out: IC50 CXCL12-CXCR4 binding interaction. How it is done:
In brief, Jurkat cells were washed twice in assay buffer [Hank’s Balanced Salt Solution (HBSS; Thermo Fisher Scientific), 20 mM HEPES buffer (Thermo Fisher Scientific), 0.2% bovine serum albumin (Sigma-Aldrich), pH 7.4]. […] Afterwards, cells were washed twice in assay buffer and subsequently fixed in 1% paraformaldehyde in Dulbecco’s phosphate buffered saline (DPBS). Samples were analyzed with the FACSArray flow cytometer (Becton Dickinson, NJ, USA). Data were further analyzed with the FlowJo Software (Ashland, Oregon, USA).

Setting [7] is: Human immunodeficiency virus 1, NL43, PBMC, 240 h, PHA-stimulated PBMCs, ten days post infection, p24 Ag ELISA, mean ± SEM, read-out: IC50 HIV-1 (X4) NL4-3 replication, PHA-stimulated PBMCs.
Setting [8] is: Human immunodeficiency virus 1, NL43, MT4, 96 h, MT-4 cells, four days post infection, MTS, mean ± SEM, read-out: IC50 HIV-1 (X4) NL4-3 replication, MT-4 cells.
[9] abbreviates: Homo sapiens, Jurkat, 2 h, read-out: IC50 Chemotaxis.
The mark [10] stands for this setting: PHA-stimulated PBMCs, ten days post infection, p24 Ag ELISA, mean ± SEM, read-out: IC50 HIV-1 (X4) NL4-3 replication, PHA-stimulated PBMCs.
Where [11] appears, read: MT-4 cells, four days post infection, MTS, mean ± SEM, read-out: IC50 HIV-1 (X4) NL4-3 replication, MT-4 cells.
Setting [12] is: Jurkat cells, 6.25 nM CXCL12, two hours, mean ± SEM, read-out: IC50 Chemotaxis.

T2 sequence (P61073 whole entry): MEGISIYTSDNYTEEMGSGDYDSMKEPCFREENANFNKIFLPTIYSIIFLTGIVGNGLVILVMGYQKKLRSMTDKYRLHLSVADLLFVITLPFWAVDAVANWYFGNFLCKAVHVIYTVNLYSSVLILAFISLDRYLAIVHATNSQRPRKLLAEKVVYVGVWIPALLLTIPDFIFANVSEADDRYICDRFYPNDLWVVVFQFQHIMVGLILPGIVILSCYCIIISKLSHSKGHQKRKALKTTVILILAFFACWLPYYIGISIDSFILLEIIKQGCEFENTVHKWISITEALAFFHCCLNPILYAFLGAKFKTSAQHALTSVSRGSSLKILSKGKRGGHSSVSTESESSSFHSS
T1 sequence (P25106 whole entry): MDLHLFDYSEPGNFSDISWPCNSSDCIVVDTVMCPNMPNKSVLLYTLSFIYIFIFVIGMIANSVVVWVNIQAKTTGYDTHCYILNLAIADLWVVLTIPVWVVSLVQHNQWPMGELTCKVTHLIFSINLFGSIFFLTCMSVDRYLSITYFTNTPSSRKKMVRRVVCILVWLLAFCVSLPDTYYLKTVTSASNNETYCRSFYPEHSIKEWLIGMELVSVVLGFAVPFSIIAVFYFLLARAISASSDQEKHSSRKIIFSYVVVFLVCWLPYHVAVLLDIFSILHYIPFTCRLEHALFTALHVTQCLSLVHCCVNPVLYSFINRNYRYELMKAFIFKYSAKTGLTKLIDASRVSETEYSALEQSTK

For `NCCCCN(Cc1nc2ccccc2[nH]1)[C@H]1CCCc2cccnc21` [AMD11070], the IC50 in the experiment on HIV-1 NL4-3 (X4) [1] (setting [7]) stood at 26.4 ± 6.1 nM; in the experiment with HIV-1 NL4-3 (X4) [3] (setting [8]) it was 11.9 ± 4.6 nM; in experiment [4] (setting [9]), 74.9 ± 17.7 nM. Further, the “inhibition of CXCL12 binding on CXCR7” value at CXCR7 was “reduced CXCL12 binding on CXCR7 in the lower micromolar range”. For the same compound, the “induction of CXCR4 internalization (agonistic effect)” value (shortened to “induction of CXCR4 internalization”) on CXCR4 [2] (50 μM) is reported as “absence of an agonistic effect”.

As to “CXCL12: Recombinant human CXCL12, endogenous chemokine ligand of CXCR4”, the EC90 with CXCR4 [5] (U87.CD4.CXCR4 cells, CXCL12 alone, read-out: EC90 increase of the calcium concentration) turned out to be 10.9 nM.

For KGVSLSYRKRYSLSVGK-NH2 [CTCE-9908], the “agonist activity on intracellular calcium flux” value on CXCR4 [5] (20 μM) is “this activity was lost”; on CXCR4 [5] (100 μM), “very weak agonist activity”. Further, the “induction of CXCR4 internalization” value at CXCR4 [2] (100 μM) is “absence of an agonistic effect”.

Take `CN(C)CCN(CCN(C)C)CCN(C)C` [Me6TREN]: the concentration for half-maximal inhibition (IC50) in the experiment with HIV-1 NL4-3 (X4) [1] (setting [10]) is greater than 100000 nM; on CXCR4 [5] (U87.CD4.CXCR4 cells) it was greater than 100000 nM; against CXCR4 [2], greater than 100000 nM; in the experiment on HIV-1 NL4-3 (X4) [3] (setting [11]) it was greater than 100000 nM; in experiment [4] (setting [12]), greater than 100000 nM; at CXCR4 [6], 51900 nM. Moreover, the “induction of CXCR4 internalization” value on CXCR4 [2] (100 μM) was “absence of an agonistic effect”.

Consider `CC1(C)CN2C(CSC(=NC3CCCCC3)NC3CCCCC3)=CSC2=N1` [IT1t], for which the IC50 was 19 ± 2.3 nM in the experiment with HIV-1 NL4-3 (X4) [1] (setting [10]), 14.2 ± 5.3 nM with HIV-1 NL4-3 (X4) [3] (setting [11]) and 79.1 ± 9.6 nM in experiment [4] (setting [12]).

As to `c1cc(CN2CCCNCCNCCCNCC2)ccc1CN1CCCNCCNCCCNCC1` [AMD3100], the IC50 amounted to 14.9 ± 3.2 nM in the experiment with HIV-1 NL4-3 (X4) [1] (setting [7]), 11.8 ± 3.4 nM with HIV-1 NL4-3 (X4) [3] (setting [8]) and 1430 nM in experiment [4] (setting [9]). Besides, the “induction of CXCR4 internalization” value at CXCR4 [2] (50 μM) is “absence of an agonistic effect”.

Consider `c1ccc(CNCc2ccc(CN3CCCNCCNCCCNCC3)cc2)nc1` [AMD3465], for which the IC50 in the experiment with HIV-1 NL4-3 (X4) [1] (setting [10]) was 27.2 ± 8.7 nM; at CXCR4 [5] (U87.CD4.CXCR4 cells), 53.4 ± 24.3 nM; against CXCR4 [2], 67.3 ± 11.3 nM; with HIV-1 NL4-3 (X4) [3] (setting [11]) it was 21.8 ± 10.1 nM; in experiment [4] (setting [12]), 116 ± 15.2 nM; on CXCR4 [6], 2.1 ± 0.24 nM. In addition, the “induction of CXCR4 internalization” value on CXCR4 [2] (50 μM) is “absence of an agonistic effect”.

Consider `N=C(N)NCCC[C@H](NC(=O)[C@@H]1CSSC[C@H](NC(=O)[C@H](Cc2ccc3ccccc3c2)NC(=O)[C@H](CCCNC(=N)N)NC(=O)[C@@H](N)CCCNC(=N)N)C(=O)N[C@@H](Cc2ccc(O)cc2)C(=O)N[C@@H](CCCNC(=N)N)C(=O)N[C@@H](CCCCN)C(=O)N[C@H](CCCCN)C(=O)N2CCC[C@H]2C(=O)N[C@@H](Cc2ccc(O)cc2)C(=O)N[C@@H](CCCNC(=N)N)C(=O)N[C@@H](CCCNC(N)=O)C(=O)N1)C(=O)O` [T140] (H-RR[2Nal]CYRK[dK]PYR[Cit]CR-OH; disulfide 4-13 (inferred); N-terminus and C-terminus assumed), for which the values for the IC50 (in the experiment on HIV-1 NL4-3 (X4) [1] (NL4-3 (X4)); with HIV-1 NL4-3 (X4) [3] (NL4-3 (X4)); in experiment [4]) were 10.4 ± 4.8 nM, 13.5 ± 7.1 nM and 73.7 ± 26 nM, respectively. Further, the “induction of CXCR4 internalization” value on CXCR4 [2] (50 μM) is listed as “absence of an agonistic effect”.

Regarding `N=C(N)NCCC[C@H](NC(=O)[C@@H]1CSSC[C@H](NC(=O)[C@H](Cc2c[nH]c3ccccc23)NC(=O)[C@H](CCCNC(=N)N)NC(=O)[C@@H](N)CCCNC(=N)N)C(=O)N[C@@H](Cc2ccc(O)cc2)C(=O)N[C@@H](CCCNC(=N)N)C(=O)N[C@@H](CCCCN)C(=O)N[C@H]2CSSC[C@H](NC(=O)[C@H](Cc3ccc(O)cc3)NC(=O)CNC(=O)[C@H](CCCCN)NC(=O)[C@H](Cc3ccc(O)cc3)NC2=O)C(=O)N[C@@H](Cc2ccc(O)cc2)C(=O)N[C@@H](CCCNC(=N)N)C(=O)N[C@@H](CCCCN)C(=O)N1)C(N)=O` [T22, (Tyr^5.12,Lys^7)-Polyphemusin II] (H-RRWCYRKCYKGYCYRKCR-NH2; disulfide 4-17, 8-13 (inferred); N-terminus and C-terminus assumed), the “induction of CXCR4 internalization” value on CXCR4 [2] (50 μM) is given as “absence of an agonistic effect”.

As to `N=C(N)NCCC[C@H](NC(=O)[C@@H]1CSSC[C@H](NC(=O)[C@H](Cc2ccc3ccccc3c2)NC(=O)[C@H](CCCNC(=N)N)NC(=O)[C@@H](N)CCCNC(=N)N)C(=O)N[C@@H](Cc2ccc(O)cc2)C(=O)N[C@@H](CCCNC(N)=O)C(=O)N[C@@H](CCCCN)C(=O)N[C@H](CCCNC(N)=O)C(=O)N2CCC[C@H]2C(=O)N[C@@H](Cc2ccc(O)cc2)C(=O)N[C@@H](CCCNC(=N)N)C(=O)N[C@@H](CCCNC(N)=O)C(=O)N1)C(N)=O` [TC14012], the IC50 in the experiment on HIV-1 NL4-3 (X4) [1] (NL4-3 (X4)) amounted to 9.3 ± 4 nM; in the experiment on HIV-1 NL4-3 (X4) [3] (NL4-3 (X4)), 7.2 ± 2.3 nM. In addition, the “inhibition of CXCL12 binding on CXCR7” value at CXCR7 is “reduced CXCL12 binding on CXCR7 in the lower micromolar range”. Further, the “induction of CXCR4 internalization” value on CXCR4 [2] (50 μM) was “absence of an agonistic effect”. In addition, the inhibition of migration entry in experiment [4] (pretreated at concentrations as low as 200 nM) is listed as “total inhibition of migration”.
